Assay results reported in patent US10508111B2, “6-[5-amino-6-(2-ethoxyethoxy)-imidazo[4,5-B]pyridin-3-yl]-nicotinonitrile derivatives and their use as IRAK inhibitors” (GALAPAGOS NV, priority 2015, dated 2019).
pIC50: −log10 of the molar value.

Columns and labels:
Type in all cases: biochemical
human IRAK-4 = target: T1, human IRAK-4 (Homo sapiens, UniProt Q9NWZ3); assay: IC50 determination for human IRAK-4, radioactive filter plate assay; details: RIP140 substrate, 1 μM ATP + [γ-33P]ATP, 30° C., 45 min; read-out: hIRAK-4 IC50
T1 construct: purchased Carna Biosciences 09-145
T1 sequence (Q9NWZ3 1-460): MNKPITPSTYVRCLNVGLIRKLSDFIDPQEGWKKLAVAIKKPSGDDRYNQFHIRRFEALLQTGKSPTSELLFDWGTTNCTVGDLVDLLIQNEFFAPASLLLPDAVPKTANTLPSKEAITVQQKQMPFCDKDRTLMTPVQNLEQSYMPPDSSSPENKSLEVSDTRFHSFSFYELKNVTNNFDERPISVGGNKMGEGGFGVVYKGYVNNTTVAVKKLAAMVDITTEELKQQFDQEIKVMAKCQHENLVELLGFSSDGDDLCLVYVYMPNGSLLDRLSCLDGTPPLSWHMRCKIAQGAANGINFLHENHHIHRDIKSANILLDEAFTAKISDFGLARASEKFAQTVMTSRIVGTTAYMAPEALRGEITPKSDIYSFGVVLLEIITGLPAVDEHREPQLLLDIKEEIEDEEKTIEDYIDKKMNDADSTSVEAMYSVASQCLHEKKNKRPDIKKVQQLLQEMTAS
Method: The IC50 value for IRAK-4 is determined in a radioactive filter plate assay. The principle of the assay consists in the measurement of incorporated ^33P into the RIP140 substrate upon phosphorylation by the enzyme IRAK-4 using [γ-^33P]ATP and ATP. Unincorporated ^33P is removed by loading the samples on a filter plate (using a harvester, PerkinElmer) and 6 subsequent washing steps. Incorporated ^33P in RIP140 is measured by a scintillation counter (Topcount, PerkinElmer) after addition of MicroScint™-20 (PerkinElmer, 6013621) to the filter plates.
5 μL of a water dilution series of test compound (starting from 20 μM or 6.6 μM highest concentration), from a 100% DMSO stock solution, 1/5 dilution, is added to the wells (final DMSO concentration of 1% in reaction assay). IRAK-4 (Carna Biosciences, 09-145) and RIP140 (SEQ ID1, cf. Table VII) are used at a final concentration of 10 ng/mL and 4 μM, respectively. The enzyme and substrate are diluted in 25 mM Tris pH 7.5, 0.025% Triton X-100, 5 mM MnCl2, and 2 mM DTT to a total volume of 11 μL. The reaction is started by addition of 9 μL of 1 μM ATP (Sigma, A6419-5G)+0.25 μCi [γ-^33P]ATP (PerkinElmer, NEG602K001MC), diluted in the same buffer as enzyme and substrate. The mixture is incubated at 30° C. for 45 min. The reaction is terminated by adding 25 μL of 150 mM phosphoric acid (VWR, 1.00573.1000). Samples are transferred to filter plates and incorporated radioactivity is measured using a scintillation counter.
(§1) 10 μM staurosporine (1% DMSO) is used as positive control (100% inhibition); vehicle (water+1% DMSO) as negative control (0% inhibition).

CDK2 = target: T2, CDK2 (Homo sapiens, UniProt P24941); assay: Kinase selectivity profiling (focused panel), radioactive filter plate assay: CDK2; details: Histone H1-derived peptide, 0.1 μM ATP, 60 min
T2 construct: purchased Carna Biosciences 04-103
Method: (§2) The purpose of this assay is to determine the activity and selectivity of a compound of the invention on a selected range of human kinases which may result in undesirable side-effects when inhibited (Dy & Adjei 2013; Force & Kolaja 2011).
(§3) The IC50 value for off-target kinases is determined in radioactive filter plate assays. The principle of the assays consists in the measurement of incorporated ^33P into a peptide substrate upon phosphorylation by the kinase enzyme using [γ-^33P]ATP and ATP. Unincorporated ^33P is removed by loading the samples on a filter plate (using a harvester, PerkinElmer) and 6 subsequent washing steps. Incorporated ^33P in the peptide substrate is measured by a scintillation counter (Topcount, PerkinElmer) after addition of MicroScint™-20 (PerkinElmer, 6013621) to the filter plates.
(§4) 5 μL of a water dilution series of test compound (starting from 20 μM or 6.6 μM highest concentration), from a 100% DMSO stock solution, 1/5 dilution, is added to the wells (final DMSO concentration of 1% in reaction assay). Enzyme and peptide substrate are used at optimized concentrations (cf. Table VI). The enzyme and substrate are diluted in assay buffer to a total volume of 11 μL. The reaction is started by addition of 9 μL of ATP+[γ-^33P]ATP, diluted in the same buffer as enzyme and substrate. The mixture is incubated at 30° C. The reaction is terminated by adding 25 μL of 150 mM phosphoric acid. Samples are transferred to filter plates and incorporated radioactivity is measured using a scintillation counter.
(§5) The incubation time, assay buffer composition, and concentrations of ATP, enzyme and substrate are reported in Table VI for example kinase off-target assays.
as §1

c-SRC = target: T3, c-SRC (Homo sapiens, UniProt P12931); assay: Kinase selectivity profiling (focused panel), radioactive filter plate assay: c-SRC; details: PolyGT substrate, 0.25 μM ATP, 60 min
T3 construct: purchased Carna Biosciences 08-173
T3 sequence (P12931 whole entry): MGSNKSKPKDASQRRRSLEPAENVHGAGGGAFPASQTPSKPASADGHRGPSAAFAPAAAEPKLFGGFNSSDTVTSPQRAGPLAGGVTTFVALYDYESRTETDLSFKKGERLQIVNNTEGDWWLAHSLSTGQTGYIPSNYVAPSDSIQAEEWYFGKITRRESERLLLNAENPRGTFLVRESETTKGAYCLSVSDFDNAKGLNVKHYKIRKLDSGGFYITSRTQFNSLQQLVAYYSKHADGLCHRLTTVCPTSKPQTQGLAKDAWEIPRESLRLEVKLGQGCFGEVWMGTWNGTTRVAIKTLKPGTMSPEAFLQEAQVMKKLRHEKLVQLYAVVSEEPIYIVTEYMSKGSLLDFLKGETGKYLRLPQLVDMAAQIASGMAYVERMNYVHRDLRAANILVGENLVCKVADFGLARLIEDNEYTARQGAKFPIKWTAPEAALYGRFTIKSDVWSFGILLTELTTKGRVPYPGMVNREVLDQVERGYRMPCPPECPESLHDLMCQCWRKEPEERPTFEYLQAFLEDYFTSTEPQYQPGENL
Method: as §2, §3, §4, §5, §1

GSK3b = target: T4, GSK3b (Homo sapiens, UniProt P49841); assay: Kinase selectivity profiling (focused panel), radioactive filter plate assay: GSK3b; details: Phospho glycogen synthase peptide2, 1.5 μM ATP, 90 min
T4 construct: purchased Carna Biosciences 04-141
T4 sequence (P49841 whole entry): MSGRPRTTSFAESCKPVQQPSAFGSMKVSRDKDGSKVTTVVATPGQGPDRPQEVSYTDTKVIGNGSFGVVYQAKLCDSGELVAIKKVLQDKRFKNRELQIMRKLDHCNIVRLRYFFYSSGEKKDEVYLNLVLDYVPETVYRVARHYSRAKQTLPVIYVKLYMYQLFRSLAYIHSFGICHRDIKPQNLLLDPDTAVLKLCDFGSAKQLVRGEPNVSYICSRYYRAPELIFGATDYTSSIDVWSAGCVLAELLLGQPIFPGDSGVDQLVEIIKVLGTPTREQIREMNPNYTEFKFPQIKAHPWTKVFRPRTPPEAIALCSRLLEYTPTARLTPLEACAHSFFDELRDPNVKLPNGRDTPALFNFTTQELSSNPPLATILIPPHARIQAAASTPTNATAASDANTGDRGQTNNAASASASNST
Method: as §2, §3, §4, §5, §1

CDK9 = target: T5, CDK9 (Homo sapiens, UniProt P50750); assay: Kinase selectivity profiling (focused panel), radioactive filter plate assay: CDK9; details: PDKtide, 0.25 μM ATP, 60 min
T5 construct: purchased Millipore 14-685
T5 sequence (P50750 whole entry): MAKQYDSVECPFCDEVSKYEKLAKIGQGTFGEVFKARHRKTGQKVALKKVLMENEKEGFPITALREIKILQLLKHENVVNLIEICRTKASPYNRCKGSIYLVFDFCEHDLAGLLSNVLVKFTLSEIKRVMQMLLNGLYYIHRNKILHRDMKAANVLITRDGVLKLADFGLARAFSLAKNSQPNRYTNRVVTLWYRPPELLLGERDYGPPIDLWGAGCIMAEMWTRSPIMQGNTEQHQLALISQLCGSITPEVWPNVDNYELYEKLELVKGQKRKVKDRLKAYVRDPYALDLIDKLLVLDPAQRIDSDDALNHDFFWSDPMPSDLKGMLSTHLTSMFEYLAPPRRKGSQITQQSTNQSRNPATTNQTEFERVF
T5 sequence (O60563 whole entry partner): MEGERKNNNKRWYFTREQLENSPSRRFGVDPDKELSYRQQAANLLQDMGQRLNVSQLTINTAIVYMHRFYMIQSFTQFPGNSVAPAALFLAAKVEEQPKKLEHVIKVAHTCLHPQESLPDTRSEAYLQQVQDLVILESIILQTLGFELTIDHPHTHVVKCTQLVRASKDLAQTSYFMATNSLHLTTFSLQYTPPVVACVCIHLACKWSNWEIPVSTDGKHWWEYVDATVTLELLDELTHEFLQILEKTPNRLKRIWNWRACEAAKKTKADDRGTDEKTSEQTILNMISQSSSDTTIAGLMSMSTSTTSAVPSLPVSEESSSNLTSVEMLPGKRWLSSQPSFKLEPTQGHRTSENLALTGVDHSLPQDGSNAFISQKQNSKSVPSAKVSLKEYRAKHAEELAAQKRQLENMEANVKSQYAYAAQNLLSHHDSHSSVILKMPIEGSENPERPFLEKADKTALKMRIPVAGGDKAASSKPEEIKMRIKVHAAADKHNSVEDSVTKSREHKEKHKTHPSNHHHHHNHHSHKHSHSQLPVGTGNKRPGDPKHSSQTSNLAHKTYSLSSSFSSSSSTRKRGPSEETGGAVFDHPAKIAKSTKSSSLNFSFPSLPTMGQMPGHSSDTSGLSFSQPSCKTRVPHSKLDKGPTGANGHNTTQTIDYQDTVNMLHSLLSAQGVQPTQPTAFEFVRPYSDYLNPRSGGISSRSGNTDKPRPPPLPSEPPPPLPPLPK
Method: as §2, §3, §4, §5, §1

ABL = target: T6, ABL (Homo sapiens, UniProt P00519); assay: Kinase selectivity profiling (focused panel), radioactive filter plate assay: ABL; details: PolyGT substrate, 0.5 μM ATP, 60 min
T6 construct: purchased Life Technologies P3049
T6 sequence (P00519 whole entry): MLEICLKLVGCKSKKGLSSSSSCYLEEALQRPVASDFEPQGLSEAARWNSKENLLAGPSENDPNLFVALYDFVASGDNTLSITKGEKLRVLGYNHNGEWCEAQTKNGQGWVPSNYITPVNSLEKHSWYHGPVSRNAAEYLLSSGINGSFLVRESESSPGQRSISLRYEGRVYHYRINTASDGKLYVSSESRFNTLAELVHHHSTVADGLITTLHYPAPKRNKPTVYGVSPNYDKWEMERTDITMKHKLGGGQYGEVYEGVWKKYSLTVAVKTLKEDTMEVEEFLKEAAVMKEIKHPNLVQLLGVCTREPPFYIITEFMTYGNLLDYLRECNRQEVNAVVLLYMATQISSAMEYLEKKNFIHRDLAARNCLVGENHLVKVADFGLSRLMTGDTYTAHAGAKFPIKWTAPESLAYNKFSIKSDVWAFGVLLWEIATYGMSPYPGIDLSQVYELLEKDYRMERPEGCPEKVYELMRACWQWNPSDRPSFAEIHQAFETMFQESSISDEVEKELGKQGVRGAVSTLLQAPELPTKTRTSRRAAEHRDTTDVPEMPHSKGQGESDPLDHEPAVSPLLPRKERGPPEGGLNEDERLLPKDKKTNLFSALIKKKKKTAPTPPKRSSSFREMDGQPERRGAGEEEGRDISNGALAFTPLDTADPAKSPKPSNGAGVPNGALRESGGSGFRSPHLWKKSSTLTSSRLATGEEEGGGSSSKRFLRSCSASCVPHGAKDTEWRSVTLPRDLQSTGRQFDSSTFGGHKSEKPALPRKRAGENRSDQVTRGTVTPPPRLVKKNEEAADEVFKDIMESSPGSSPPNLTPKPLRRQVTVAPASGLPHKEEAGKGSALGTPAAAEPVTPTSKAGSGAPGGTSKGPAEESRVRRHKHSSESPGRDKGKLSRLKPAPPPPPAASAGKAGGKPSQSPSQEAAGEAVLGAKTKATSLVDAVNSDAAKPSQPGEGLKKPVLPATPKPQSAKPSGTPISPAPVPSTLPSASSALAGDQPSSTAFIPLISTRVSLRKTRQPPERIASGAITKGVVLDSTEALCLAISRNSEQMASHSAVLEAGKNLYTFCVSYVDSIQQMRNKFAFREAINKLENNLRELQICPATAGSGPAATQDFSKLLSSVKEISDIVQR
Method: as §2, §3, §4, §5, §1

pIC50 (human IRAK-4)	pIC50 (CDK2)	pIC50 (c-SRC)	pIC50 (GSK3b)	pIC50 (CDK9)	pIC50 (ABL)	Compound
7.84	< 5.88	< 5.88	< 5.88	6.08	–	N#Cc1ccc(-n2cnc3cc(OCCOCCO)c(N[C@@H]4COCC[C@@H]4O)nc32)nc1 (relative stereo) [Compound 11, 6-[6-[2-(2-hydroxyethoxy)ethoxy]-5-[[(cis-3,4)-4-hydroxytetrahydropyran-3-yl]amino]imidazo[4,5-b]pyridin-3-yl]pyridine-3-carbonitrile]
7.60	< 5.88	< 5.88	< 5.88	6.15	–	N#Cc1ccc(-n2cnc3cc(OCCOCCO)c(NC4CCS(=O)(=O)CC4)nc32)nc1 [Compound 2, 6-{5-(1,1-dioxo-tetrahydro-2H-thiopyran-4-ylamino)-6-[2-(2-hydroxy-ethoxy)-ethoxy]-imidazo[4,5-b]pyridin-3-yl}-nicotinonitrile]
7.66	–	–	–	–	–	CN(c1nc2c(cc1OCCOCCO)ncn2-c1ccc(C#N)cn1)[C@H]1CC[C@@](C)(O)CC1 [Compound 3, 6-{6-[2-(2-hydroxy-ethoxy)-ethoxy]-5-[((cis-1,4)-4-hydroxy-4-methyl-cyclohexyl)-methyl-amino]-imidazo[4,5-b]pyridin-3-yl}-nicotinonitrile]
6.28	–	–	–	–	–	COCCOCCOc1cc2ncn(-c3ccc(C#N)cn3)c2nc1N(C)C1CCOCC1 [Compound 4, 6-{6-[2-(2-methoxy-ethoxy)-ethoxy]-5-[methyl-(tetrahydro-pyran-4-yl)-amino]-imidazo[4,5-b]pyridin-3-yl}-nicotinonitrile]
7.86	< 5.40	< 5.53	< 5.40	5.64	5.57	COCCOCCOc1cc2ncn(-c3ccc(C#N)cn3)c2nc1NC1CCOCC1 [Compound 5, 6-[6-[2-(2-methoxy-ethoxy)-ethoxy]-5-(tetrahydro-pyran-4-ylamino)-imidazo[4,5-b]pyridin-3-yl]-nicotinonitrile]
8.31	5.57	6.12	< 5.40	5.99	6.18	N#Cc1ccc(-n2cnc3cc(OCCOCCO)c(NC4CCCC(O)C4)nc32)nc1 (centres unmarked) [Compound 6, 6-{5-(3-hydroxy-cyclohexylamino)-6-[2-(2-hydroxy-ethoxy)-ethoxy]-imidazo[4,5-b]pyridin-3-yl}-nicotinonitrile]
7.84	–	–	–	–	–	N#Cc1ccc(-n2cnc3cc(OCCOCCO)c(NC4CCC(F)(F)CC4)nc32)nc1 [Compound 7, 6-{5-(4,4-difluoro-cyclohexylamino)-6-[2-(2-hydroxy-ethoxy)-ethoxy]-imidazo[4,5-b]pyridin-3-yl}-nicotinonitrile]
7.29	–	–	–	–	–	N#Cc1ccc(-n2cnc3cc(OCCOCCOS(=O)(=O)O)c(NC4CCOCC4)nc32)nc1 [Compound 8, sulfuric acid mono-(2-{2-[3-(5-cyano-pyridin-2-yl)-5-(tetrahydro-pyran-4-ylamino)-3H-imidazo[4,5-b]pyridin-6-yloxy]-ethoxy}-ethyl) ester]
7.87	< 5.40	6.54	5.49	6.19	6.20	CC(C)[C@H](N)C(=O)OCCOCCOc1cc2ncn(-c3ccc(C#N)cn3)c2nc1NC1CCOCC1 [Compound 9, (S)-2-amino-3-methyl-butyric acid 2-{2-[3-(5-cyano-pyridin-2-yl)-5-(tetrahydro-pyran-4-ylamino)-3H-imidazo[4,5-b]pyridin-6-yloxy]-ethoxy}-ethyl ester]
7.41	–	–	–	–	–	COCCOCCOc1cc2ncn(-c3ccc(C#N)cn3)c2nc1N(C)[C@H]1CC[C@@](C)(O)CC1 [Compound 13, 6-[5-[((cis-1,4)-4-hydroxy-4-methyl-cyclohexyl)-methyl-amino]-6-[2-(2-methoxyethoxy)ethoxy]imidazo[4,5-b]pyridin-3-yl]pyridine-3-carbonitrile]
8.46	5.86	6.50	5.65	5.86	–	COCCOCCOc1cc2ncn(-c3ccc(C#N)cn3)c2nc1N[C@H]1CC[C@@](C)(O)CC1 [Compound 14, 6-[5-[((cis-1,4)-4-hydroxy-4-methylcyclohexyl)amino]-6-[2-(2-methoxyethoxy)ethoxy]imidazo[4,5-b]pyridin-3-yl]pyridine-3-carbonitrile]
